What is called IC50 is the concentration that gives 50% inhibition. A low value points to greater potency.

We go through 15 compounds from patent US8859569B2, “Substituted annellated pyrimidines and use thereof” (Bayer Pharma Aktiengesellschaft, priority 2011, dated 2014).

The target in assay [1] is T1, recombinant guanylate cyclase reporter cell line (Rattus norvegicus, UniProt P19686+P20595).
T1 construct: expressed in transfected cells
T1 sequence (P20595 1-619): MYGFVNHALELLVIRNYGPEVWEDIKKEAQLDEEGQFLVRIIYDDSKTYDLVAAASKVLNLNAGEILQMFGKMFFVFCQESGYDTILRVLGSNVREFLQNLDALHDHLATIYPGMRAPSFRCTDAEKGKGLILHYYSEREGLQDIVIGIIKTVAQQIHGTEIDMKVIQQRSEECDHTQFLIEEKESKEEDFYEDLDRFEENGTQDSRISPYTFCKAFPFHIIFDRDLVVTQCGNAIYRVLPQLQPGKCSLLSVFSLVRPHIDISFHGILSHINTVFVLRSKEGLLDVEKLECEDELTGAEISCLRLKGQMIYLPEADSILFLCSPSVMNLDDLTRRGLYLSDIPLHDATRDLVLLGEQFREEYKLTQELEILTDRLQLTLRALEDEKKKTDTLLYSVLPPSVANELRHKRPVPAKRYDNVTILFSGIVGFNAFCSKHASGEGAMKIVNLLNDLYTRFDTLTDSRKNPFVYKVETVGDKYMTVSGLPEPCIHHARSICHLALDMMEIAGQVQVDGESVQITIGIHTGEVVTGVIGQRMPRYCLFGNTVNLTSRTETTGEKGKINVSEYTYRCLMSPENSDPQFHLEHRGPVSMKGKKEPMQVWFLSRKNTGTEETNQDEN
T1 sequence (P19686 1-690): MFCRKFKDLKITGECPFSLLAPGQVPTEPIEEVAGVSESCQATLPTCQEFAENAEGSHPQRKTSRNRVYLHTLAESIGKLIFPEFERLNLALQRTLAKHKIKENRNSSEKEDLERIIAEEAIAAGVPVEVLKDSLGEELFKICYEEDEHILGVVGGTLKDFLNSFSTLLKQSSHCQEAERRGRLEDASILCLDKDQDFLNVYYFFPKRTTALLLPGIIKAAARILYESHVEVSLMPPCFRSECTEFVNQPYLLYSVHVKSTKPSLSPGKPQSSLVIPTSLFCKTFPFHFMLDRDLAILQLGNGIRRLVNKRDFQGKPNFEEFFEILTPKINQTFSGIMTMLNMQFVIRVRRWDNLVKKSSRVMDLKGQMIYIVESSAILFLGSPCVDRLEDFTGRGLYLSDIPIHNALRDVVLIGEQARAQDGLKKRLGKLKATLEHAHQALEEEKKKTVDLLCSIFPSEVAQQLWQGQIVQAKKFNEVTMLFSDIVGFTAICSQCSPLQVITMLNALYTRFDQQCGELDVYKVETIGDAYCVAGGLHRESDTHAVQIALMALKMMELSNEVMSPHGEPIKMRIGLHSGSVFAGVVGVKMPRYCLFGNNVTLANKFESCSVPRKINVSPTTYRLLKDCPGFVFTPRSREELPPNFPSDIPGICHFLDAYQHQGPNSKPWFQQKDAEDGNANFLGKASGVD
As to the kind of experiment: Action on recombinant guanylate cyclase reporter cell line. The assay is classed as cell-based. How it is done:
B-2. Action on Recombinant Guanylate Cyclase Reporter Cell Line
The cellular action of the compounds according to the invention is determined on a recombinant guanylate cyclase reporter cell line, as described in F. Wunder et al., Anal. Biochem. 339, 104-112 (2005).

Assay [2] deals with T2, human phosphodiesterase 5 (PDE-5) (Homo sapiens, UniProt O76074).
T2 construct: PDE-5 preparations are obtained from human platelets by lysis; from tissue; host or cells: human platelets
As to the kind of experiment: Inhibition of human phosphodiesterase 5 (PDE-5), SPA assay. The format is biochemical. Conditions: PDE-5 preparation from human platelets, [8-3H]cGMP substrate. The method, then:
B-6. Inhibition of Human Phosphodiesterase 5 (PDE-5)
PDE-5 preparations are obtained from human platelets by lysis (Microfluidizer®, 800 bar, 3 passages), followed by centrifugation (75000 g, 60 min, 4° C.) and ion-exchange chromatography of the supernatant on a Mono Q 10/10 column (linear sodium chloride gradient, elution with a 0.2-0.3M solution of sodium chloride in buffer (20 mM Hepes pH 7.2, 2 mM magnesium chloride). Fractions that have PDE-5 activity are combined (PDE-5 preparation) and stored at −80° C.
For determining their in-vitro action on human PDE-5, the test substances are dissolved in 100% DMSO and serial dilutions are prepared. Typically, dilution series (1:3) from 200 μM to 0.091 μM are prepared (resultant final concentrations in the test: 4 μM to 0.0018 μM). In each case 2 μL of the diluted solutions of the substance are put in the wells of microtitre plates (Isoplate-96/200W; Perkin-Elmer). Then 50 μL of a dilution of the PDE-5 preparation described above is added. The dilution of the PDE-5 preparation is selected so that during subsequent incubation less than 70% of the substrate is reacted (typical dilution: 1:100; dilution buffer: 50 mM Tris/hydrochloric acid pH 7.5, 8.3 mM magnesium chloride, 1.7 mM EDTA, 0.2% BSA). The substrate [8-^3H]cyclic guanosine-3′,5′-monophosphate (1 μCi/μL; Perkin-Elmer) is diluted 1:2000 with assay buffer (50 mM Tris/hydrochloric acid pH 7.5, 8.3 mM magnesium chloride, 1.7 mM EDTA) to a concentration of 0.0005 μCi/μL. The enzyme reaction is finally started by adding 50 μL (0.025 μCi) of the diluted substrate. The test preparations are incubated for 60 min at room temperature and the reaction is stopped by adding 25 μL of a suspension of 18 mg/mL of Yttrium Scintillation Proximity Beads in water (phosphodiesterase beads for SPA assays, RPNQ 0150, Perkin-Elmer). The microtitre plates are sealed with film and left to stand for 60 min at room temperature. Then the plates are measured for 30 s per well in a Microbeta scintillation counter (Perkin-Elmer). IC50 values are determined on the basis of the graphs plotted of the substance concentration versus the percentage PDE-5 inhibition.

For `CC1(C)C(=O)Nc2nc(-c3nn(Cc4ccccc4F)c4ncccc34)nc(NC3CCOC3)c21` (racemic) [Example 49, 2-[1-(2-fluorobenzyl)-1H-pyrazolo[3,4-b]pyridin-3-yl]-5,5-dimethyl-4-(tetrahydrofuran-3-ylamino)-5,7-dihydro-6H-pyrrolo[2,3-d]pyrimidin-6-one], the “MEC (minimal effective concentration)” value in assay [1] is recorded as 0.3 μm. Consider `Cn1nccc1CNc1nc(-c2nn(Cc3ccccc3F)c3ncccc23)nc2c1C(C)(C)C(=O)N2` [Example 40, 2-[1-(2-Fluorobenzyl)-1H-pyrazolo[3,4-b]pyridin-3-yl]-5,5-dimethyl-4-{[(1-methyl-1H-pyrazol-5-yl)methyl]amino}-5,7-dihydro-6H-pyrrolo[2,3-d]pyrimidin-6-one], for which the “MEC (minimal effective concentration)” value in assay [1] was determined as 0.1 μm. In assay [2], this compound had an IC50 of 0.011 µM.

In the case of `Cc1ccc(CNc2nc(-c3nn(Cc4ccccc4F)c4ncccc34)nc3c2C(C)(C)C(=O)N3)o1` [Example 41, 2-[1-(2-fluorobenzyl)-1H-pyrazolo[3,4-b]pyridin-3-yl]-5,5-dimethyl-4-{[(5-methylfuran-2-yl)methyl]amino}-5,7-dihydro-6H-pyrrolo[2,3-d]pyrimidin-6-one], the “MEC (minimal effective concentration)” value in assay [1] stood at 0.01 μm. Besides, half-maximal inhibition in assay [2] (IC50) required 0.17 µM. The matching figures for `CC1(C)C(=O)Nc2nc(-c3nn(Cc4ccccc4F)c4ncccc34)nc(NCc3ccccc3F)c21` [Example 42, 4-[(2-fluorobenzyl)amino]-2-[1-(2-fluorobenzyl)-1H-pyrazolo[3,4-b]pyridin-3-yl]-5,5-dimethyl-5,7-dihydro-6H-pyrrolo[2,3-d]pyrimidin-6-one]: 0.1 μm and 0.12 µM. With `CC1(C)C(=O)Nc2nc(-c3nn(Cc4ccccc4F)c4ncccc34)nc(NCC3CC3)c21` [Example 43, 4-[(cyclopropylmethyl)amino]-2-[1-(2-fluorobenzyl)-1H-pyrazolo[3,4-b]pyridin-3-yl]-5,5-dimethyl-5,7-dihydro-6H-pyrrolo[2,3-d]pyrimidin-6-one], the “MEC (minimal effective concentration)” value in assay [1] turned out to be 0.03 μm. The compound also came in with a half-inhibitory concentration (IC50) in assay [2] of 0.41 µM.

For the compound `CC(=O)NCCNc1nc(-c2nn(Cc3ccccc3F)c3ncccc23)nc2c1C(C)(C)C(=O)N2` [Example 44, N-[2-({2-[1-(2-fluorobenzyl)-1H-pyrazolo[3,4-b]pyridin-3-yl]-5,5-dimethyl-6-oxo-6,7-dihydro-5H-pyrrolo[2,3-d]pyrimidin-4-yl}amino)ethyl]acetamide], in assay [1], the “MEC (minimal effective concentration)” value stood at 0.1 μm. The compound further gave an IC50 in assay [2] of 0.086 µM. As to `CC1(C)C(=O)Nc2nc(-c3nn(Cc4ccccc4F)c4ncccc34)nc(NC[C@@H]3CCOC3)c21` [Example 45, 2-[1-(2-fluorobenzyl)-1H-pyrazolo[3,4-b]pyridin-3-yl]-5,5-dimethyl-4-[(tetrahydrofuran-3-ylmethyl)amino]-5,7-dihydro-6H-pyrrolo[2,3-d]pyrimidin-6-one], in assay [1], the “MEC (minimal effective concentration)” value was 0.1 μm. Also, in assay [2], the half-inhibitory concentration (IC50) came to 0.078 µM. As for `CC1(C)C(=O)Nc2nc(-c3nn(Cc4ccccc4F)c4ncccc34)nc(N3CCCCC3)c21` [Example 54, 2-[1-(2-fluorobenzyl)-1H-pyrazolo[3,4-b]pyridin-3-yl]-5,5-dimethyl-4-(piperidin-1-yl)-5,7-dihydro-6H-pyrrolo[2,3-d]pyrimidin-6-one], the “MEC (minimal effective concentration)” value in assay [1] was found to be 0.03 μm. `C[C@@H](O)CNc1nc(-c2nn(Cc3ccccc3F)c3ncccc23)nc2c1C(C)(C)C(=O)N2` [Example 57, 2-[1-(2-fluorobenzyl)-1H-pyrazolo[3,4-b]pyridin-3-yl]-4-[(2-hydroxypropyl)amino]-5,5-dimethyl-5,7-dihydro-6H-pyrrolo[2,3-d]pyrimidin-6-one]: in assay [2], the half-inhibitory concentration (IC50) worked out at 0.016 µM.

Regarding `CC1(CNc2nc(-c3nn(Cc4ccccc4F)c4ncccc34)nc3c2C(C)(C)C(=O)N3)COC1` [Example 67, 2-[1-(2-fluorobenzyl)-1H-pyrazolo[3,4-b]pyridin-3-yl]-5,5-dimethyl-4-{[(3-methyloxetan-3-yl)methyl]amino}-5,7-dihydro-6H-pyrrolo[2,3-d]pyrimidin-6-one], the “MEC (minimal effective concentration)” value in assay [1] is given as 0.03 μm. Consider `CC1(C)C(=O)Nc2nc(-c3nn(Cc4ccccc4F)c4ncccc34)nc(NCc3ccc(F)cc3)c21` [Example 77, 4-[(4-fluorobenzyl)amino]-2-[1-(2-fluorobenzyl)-1H-pyrazolo[3,4-b]pyridin-3-yl]-5,5-dimethyl-5,7-dihydro-6H-pyrrolo[2,3-d]pyrimidin-6-one], for which the “MEC (minimal effective concentration)” value in assay [1] is reported as 0.1 μm.

Turning to `C[C@H](Nc1nc(-c2nn(Cc3ccccc3F)c3ncccc23)nc2c1C(C)(C)C(=O)N2)C(N)=O` [Example 79, N2-{2-[1-(2-fluorobenzyl)-1H-pyrazolo[3,4-b]pyridin-3-yl]-5,5-dimethyl-6-oxo-6,7-dihydro-5H-pyrrolo[2,3-d]pyrimidin-4-yl}-L-alaninamide], in assay [1], the “MEC (minimal effective concentration)” value is 0.1 μm. Turning to `CC1(C)C(=O)Nc2nc(-c3nn(Cc4ccccc4F)c4ncccc34)nc(NCC3CCCC3)c21` [Example 80, 4-[(cyclopentylmethyl)amino]-2-[1-(2-fluorobenzyl)-1H-pyrazolo[3,4-b]pyridin-3-yl]-5,5-dimethyl-5,7-dihydro-6H-pyrrolo[2,3-d]pyrimidin-6-one], the “MEC (minimal effective concentration)” value in assay [1] was 0.03 μm. In the case of `CC1(C)C(=O)Nc2nc(-c3nn(Cc4ccccc4F)c4ncccc34)nc(N3CCNC(=O)C3)c21` [Example 82, 2-[1-(2-fluorobenzyl)-1H-pyrazolo[3,4-b]pyridin-3-yl]-5,5-dimethyl-4-(3-oxopiperazin-1-yl)-5,7-dihydro-6H-pyrrolo[2,3-d]pyrimidin-6-one], the “MEC (minimal effective concentration)” value in assay [1] was found to be 0.1 μm. With `CCOC(=O)C1(C)C(=O)Nc2nc(-c3nn(Cc4ccccc4F)c4ncccc34)nc(O)c21` (stereo not drawn) [Example 101, Ethyl-2-[1-(2-fluorobenzyl)-1H-pyrazolo[3,4-b]pyridin-3-yl]-4-hydroxy-5-methyl-6-oxo-6,7-dihydro-5H-pyrrolo[2,3-d]pyrimidine-5-carboxylate], the IC50 in assay [2] was found to be 0.87 µM.
